# Laboratory results taken from patent US20200087340A1, “LIF/LIFR ANTAGONIST IN ONCOLOGY AND NONMALIGNANT DISEASES” (Evestra, Inc., priority 2018, published 2020).
# “Also recorded” adds a separate entry of the source.
# What was measured:
# hERG membrane = hERG membrane (Homo sapiens, UniProt Q12809); assay: Cardiotoxicity assessment (hERG), fluorescence polarization assay; type: binding
# GR = molecular target: T1, GR (Homo sapiens, UniProt P04150); assay: Off-target binding study (CEREP screen); settings: no binding up to, read-out: IC 50 of binding, GR
# T1 construct: CEREP (contract screen, per earlier reading)
# T1 sequence (P04150 whole entry): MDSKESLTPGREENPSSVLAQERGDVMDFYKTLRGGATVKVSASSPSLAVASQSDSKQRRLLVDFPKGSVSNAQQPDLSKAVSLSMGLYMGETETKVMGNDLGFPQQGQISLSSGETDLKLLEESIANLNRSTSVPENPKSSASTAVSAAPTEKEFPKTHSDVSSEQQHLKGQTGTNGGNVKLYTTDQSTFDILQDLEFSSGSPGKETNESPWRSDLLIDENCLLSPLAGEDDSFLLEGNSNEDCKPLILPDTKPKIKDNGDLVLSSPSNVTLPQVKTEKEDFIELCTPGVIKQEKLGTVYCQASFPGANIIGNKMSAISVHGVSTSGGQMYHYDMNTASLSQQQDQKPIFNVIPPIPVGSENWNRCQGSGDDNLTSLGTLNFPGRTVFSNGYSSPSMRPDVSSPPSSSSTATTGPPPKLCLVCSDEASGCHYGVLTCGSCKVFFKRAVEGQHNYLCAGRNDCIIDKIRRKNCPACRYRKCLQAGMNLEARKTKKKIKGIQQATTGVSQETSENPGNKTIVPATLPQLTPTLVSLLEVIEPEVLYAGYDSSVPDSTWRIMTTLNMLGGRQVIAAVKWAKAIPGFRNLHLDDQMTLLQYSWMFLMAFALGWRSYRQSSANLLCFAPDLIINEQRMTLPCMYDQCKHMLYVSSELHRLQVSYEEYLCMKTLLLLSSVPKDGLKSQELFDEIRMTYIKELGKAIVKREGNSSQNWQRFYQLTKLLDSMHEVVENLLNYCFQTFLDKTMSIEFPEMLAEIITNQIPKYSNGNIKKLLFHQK
# Microsomal stability [1] = type: in vitro ADME; settings: Mouse
# Hepatocyte stability [2] = type: in vitro ADME; settings: Rat
# [3] = test system: various cancer cells lines; assay: Cytotoxicity assays in various cancer cell lines; type: cell-based
# [4] = Metabolite identification; type: in vitro ADME
# [5] = Solubility: pION, kinetic, thermodynamic; type: physicochemical
# Hepatocyte stability [6] = type: in vitro ADME; settings: Mouse
# [7] = test system: breast and ovarian cancer cells; assay: Combination with HDAC inhibitor, colony formation; type: cell-based
# Description: Therapy resistance is a major hurdle in cancer chemo/targeted therapy. The role of LIF/LIFR signaling in inducing stemness and hypoxia is well established in different cancers. […] FIG. 16A depicts colony formation of cancer cells under various conditions. […] FIG. 16B depicts the effect of EC359 alone and in combination with SAHA on STAT 3 phosphorylation. FIG. 16C depicts the effect of EC359 alone and in combination with SAHA on induced apoptosis. FIGS. 17A and 17B depicts the effect of EC359 alone and in combination with SAHA on the growth of TNBC patient derived tumors. […] The combination of EC359 and SAHA provided a greater reduction than either […] alone.
# Microsomal stability [8] = type: in vitro ADME; settings: Human
# Plasma stability [9] = type: in vitro ADME; settings: Dog
# Plasma stability [10] = type: in vitro ADME; settings: Human
# Plasma protein binding [11] = type: in vitro ADME; settings: human
# [12] = test system: S. typhimurium TA98, TA100, TA1535 and E. coli WP2 uvrA + E. coli WP2[pKM101] strains; assay: Mutagenicity testing
# MM51 = assay: Murine syngeneic MM51 model; type: in vivo; settings: 1 and 5 mg/kg
# Description: (§1) . Blockade of LIF-LIFR interaction reduced the STAT3 phosphorylation, mTOR and further downstream signaling cascades. […]. Our findings establish EC359 as a novel LIF/LIFR targeting drug with therapeutic perspectives for patients with advanced primary tumors. LIF/LIFR targeting may result in the blockade of JAK-STAT signaling pathway as well as cancer fibroblast associated pro invasive tumor microenvironment in regular as well as therapy resistant tumors
# [13] = test system: triple negative breast cancer (TNBC) stem cells; assay: TNBC stem cell inhibition; type: cell-based
# U-CH1 = assay: 48 hours MTT cell proliferation assay, chordoma; type: cell-based; settings: UCH1; U-CH1, 48 hours MTT
# Description: (§2) EC359 was tested two chormoma cell lines (Mug-Chor and U-CH1) for cell viability in 48 hours MTT cell proliferation assay.
# Mug-Chor cells = assay: 48 hours MTT cell proliferation assay, chordoma; type: cell-based
# Description: as §2
# Plasma protein binding [14] = type: in vitro ADME; settings: dog
# Microsomal stability [15] = type: in vitro ADME; settings: Dog
# Single dose MTD = type: in vivo; settings: 10, 25, 50 and 100 mg/kg
# LIF = LIF (Homo sapiens, UniProt P15018); assay: biochemical
# Chain of LIF (P15018 23-202): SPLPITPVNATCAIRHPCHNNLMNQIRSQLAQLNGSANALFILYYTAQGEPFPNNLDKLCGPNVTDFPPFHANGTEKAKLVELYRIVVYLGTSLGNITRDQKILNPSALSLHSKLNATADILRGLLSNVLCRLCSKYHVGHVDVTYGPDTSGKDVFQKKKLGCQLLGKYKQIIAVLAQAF
# [16] = test system: cancer-associated fibroblasts (CAFs), alpha-SMA; assay: Cytoskeletal disruption / cancer-associated fibroblasts; type: cell-based
# Hepatocyte stability [17] = type: in vitro ADME; settings: Dog
# Plasma protein binding [18] = type: in vitro ADME; settings: mouse
# Plasma protein binding [19] = type: in vitro ADME; settings: rat
# Caco2 = assay: Caco2-permeability & efflux transporter substrate activity; type: in vitro ADME
# Plasma stability [20] = type: in vitro ADME; settings: Rat
# [21] = test system: High trans-fat fructose diet induced liver fibrosis; assay: High fat diet (HFD) induced liver fibrosis in rats; type: in vivo, rat
# hERG = molecular target: T2, hERG (Homo sapiens, UniProt Q12809); assay: Off-target binding study (CEREP screen); settings: no binding up to, read-out: IC 50 of binding, hERG
# T2 construct: CEREP (contract screen, per earlier reading)
# T2 sequence (Q12809 whole entry): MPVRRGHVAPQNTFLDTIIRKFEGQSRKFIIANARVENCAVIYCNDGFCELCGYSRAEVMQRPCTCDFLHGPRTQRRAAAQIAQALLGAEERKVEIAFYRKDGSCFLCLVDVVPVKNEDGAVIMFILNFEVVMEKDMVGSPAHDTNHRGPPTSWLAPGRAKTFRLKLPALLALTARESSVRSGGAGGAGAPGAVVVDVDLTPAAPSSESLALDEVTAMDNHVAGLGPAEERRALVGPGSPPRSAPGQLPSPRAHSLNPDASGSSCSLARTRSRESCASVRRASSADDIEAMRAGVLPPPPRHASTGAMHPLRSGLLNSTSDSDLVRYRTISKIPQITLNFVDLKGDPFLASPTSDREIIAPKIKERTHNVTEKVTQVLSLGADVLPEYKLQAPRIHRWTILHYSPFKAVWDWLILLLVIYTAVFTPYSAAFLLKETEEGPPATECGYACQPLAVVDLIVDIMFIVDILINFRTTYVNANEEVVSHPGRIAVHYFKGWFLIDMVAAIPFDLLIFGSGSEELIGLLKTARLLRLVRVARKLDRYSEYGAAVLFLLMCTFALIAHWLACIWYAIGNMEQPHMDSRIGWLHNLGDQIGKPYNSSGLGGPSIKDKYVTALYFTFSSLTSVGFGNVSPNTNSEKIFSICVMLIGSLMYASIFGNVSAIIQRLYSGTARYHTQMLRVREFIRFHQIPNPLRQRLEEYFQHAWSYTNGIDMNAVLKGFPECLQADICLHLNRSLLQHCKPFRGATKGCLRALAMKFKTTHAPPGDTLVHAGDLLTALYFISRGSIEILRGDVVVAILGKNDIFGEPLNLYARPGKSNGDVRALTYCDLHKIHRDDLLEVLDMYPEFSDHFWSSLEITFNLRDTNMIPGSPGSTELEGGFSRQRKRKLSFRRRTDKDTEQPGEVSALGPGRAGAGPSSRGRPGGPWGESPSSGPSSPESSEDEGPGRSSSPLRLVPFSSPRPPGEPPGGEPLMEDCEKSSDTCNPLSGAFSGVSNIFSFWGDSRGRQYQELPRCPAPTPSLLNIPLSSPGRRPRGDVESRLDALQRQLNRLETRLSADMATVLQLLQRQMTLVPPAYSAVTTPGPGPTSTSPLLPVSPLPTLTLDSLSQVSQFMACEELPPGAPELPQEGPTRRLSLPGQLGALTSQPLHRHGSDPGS
# cancer cells = assay: Colony formation in soft agar (EC359); type: cell-based
# PK study in Mouse = type: in vivo
# Microsomal stability [22] = type: in vitro ADME; settings: Rat
# Hepatocyte stability [23] = type: in vitro ADME; settings: Human
# TNBC xenograft = TNBC xenograft (EC359); type: in vivo; settings: 1 and 5 mg/kg
# Description: as §1
# [24] = test system: ID-8 ovarian syngeneic tumor; assay: ID-8 ovarian syngeneic murine tumor model
# Description: CD3+T cells: T cell co-receptor helps to activate both the cytotoxic T cell (CD8+ naive T cells) and also T helper cells (CD4+ naive T cells). • 2. Tumor infiltrating leukocytes • 3. CD19 is widely expressed during all phases of B cell development until terminal differentiation into plasma cells. • 4. […] M1 macrophages: produced along with inflammatory reaction. […] CD8-positive T cells: are a critical subpopulation of MEW class I-restricted T cell and are mediators of adaptive immunity.
# [25] = test system: Cytochrome P450 (1A2, 2C9, 2C19, 2D6, 3A4); assay: CYP inhibition using human liver microsomes; type: in vitro ADME; settings: human liver microsomes (1A2, 2C9, 2C19, 2D6, 3A4)
# Plasma stability [26] = type: in vitro ADME; settings: Mouse
# [27] = test system: FC 1295 and imPSCc-2 organoids; assay: Pancreatic cancer / stellate cell line derived organoid system; type: cell-based, Murine
# Description: Most solid tumors have extensive stroma that not only facilitates the tumor progression but also impedes the delivery of the chemotherapeutic agents. Due to lack of any in-vitro system, presently it is difficult to evaluate any stroma-targeted therapies. Therefore, we developed an organoid system using labeled pancreatic cancer and stellate cell lines. Murine (FC 1295 and […]-2) cell lines cultured in different combinations were grown as an organoid system using matrigel. The organoids, starting day four were treated with either gemcitabine or EC359, a novel mifepristone derived steroidal cytotoxic agent that targets tumor stroma, or both in combination. qRT-PCR analysis of activated stroma signature genes was performed on the mRNA isolated from different treatment groups. H&E, immunohistochemistry, and western blot analysis were performed to further validate our findings. […] Our novel cell line derived organoid model can be utilized for fast, and inexpensive evaluation of stroma-targeted therapies.
# Chain of hERG membrane (Q12809 whole entry): as above
compound,measurement,setting,value
"C#CC(F)(F)[C@]1(O)CC[C@H]2[C@@H]3CCC4=CC(=O)CCC4=C3[C@@H](c3ccc(-c4c(C)cc(C)cc4C)cc3)C[C@@]21C [EC359, 17α-(1,1-difluoro-2-propyn-1-yl)-17β-hydroxy-11β-[4-p-(2,4,6-trimethylphenyl)phenyl]estra-4,9-dien-3-one]",Cardiotoxicity assessment (hERG),hERG membrane,No liability
same,IC50,GR,> 10000 nM
same,Microsomal stability,Microsomal stability [1],Human & Mouse-moderate
same,Hepatocyte stability,Hepatocyte stability [2],Rat & Dog-low
same,cytotoxicity (IC50's) in cytotoxicity assays,[3],low nano-molar range
same,Major metabolic pathway,[4],Major metabolic pathway-Phase I
same,glucuronide metabolites,[4]; low CL in UDPGA,metabolism; No glucuronide
same,solubility,[5],< 10 µg/mL
same,Hepatocyte stability,Hepatocyte stability [6],Human & Mouse-moderate
same,combination with HDAC inhibitor,[7],works synergistically
same,Microsomal stability,Microsomal stability [8],Human & Mouse-moderate
same,Plasma stability (% remaining at 60 min),Plasma stability [9],105.61%
same,Plasma stability (% remaining at 60 min),Plasma stability [10],113.92%
same,fraction unbound,Plasma protein binding [11],0.0002
same,Mutagenicity testing,[12],No mutagenicity
same,Rat PK (iv),PK study in Rat; iv,6 h
same,oral bioavailability,PK study in Rat; rat,high oral bioavailability; also recorded: Orally bioavailable
same,half-life,PK study in Rat; rats,long half-life
same,tumor burden,MM51,dose dependently reduced tumor burden
same,TNBC stem cells,[13],inhibited
same,IC50,U-CH1,140 nM
same,IC50,Mug-Chor cells,85 nM
same,fraction unbound,Plasma protein binding [14],0.0017
same,Microsomal stability,Microsomal stability [15],Rat & Dog-low
same,Single dose MTD,Single dose MTD,No toxicity observed
same,Kd,LIF,> 5000 nM
same,"cytoskeletal disruption, targeting CAFs",[16],inhibition of alpha-SMA but not beta-tubulin
same,Hepatocyte stability,Hepatocyte stability [17],Rat & Dog-low
same,fraction unbound,Plasma protein binding [18],0.0037
same,fraction unbound,Plasma protein binding [19],0.0011
same,Caco2-permeability,Caco2,Low permeable
same,efflux transporter substrate activity,Caco2,No efflux transporter
same,Plasma stability (% remaining at 60 min),Plasma stability [20],108.64%
same,liver damage (HFD induced steatohepatisis),"[21]; after 4 months of HFD, rats",significantly reduced
same,"fibrosis, Picrosirius red staining of liver tissue",[21]; intermediary and higher dose,Fibrosis was evident
same,efficacy in rat models of liver fibrosis,[21]; rat models of liver fibrosis,showed efficacy
same,"fibrosis, Picrosirius red staining of liver tissue",[21]; rats,minimal fibrosis
same,IC50,hERG,> 30000 nM
same,formation of colonies in soft agar,cancer cells,blocked formation of colonies
same,oral bioavailability,PK study in Mouse; Mouse,Orally bioavailable
same,Mouse PK (p.o),PK study in Mouse; p.o,1.0 h
same,Microsomal stability,Microsomal stability [22],Rat & Dog-low
same,Hepatocyte stability,Hepatocyte stability [23],Human & Mouse-moderate
same,tumor burden,TNBC xenograft,dose dependently reduced tumor burden
same,tumor specific infiltration of lymphocytes and macrophages,[24]; ID-8 Ovarian cancer model,enhanced
same,M1 macrophages,[24]; ID-8 model,increased
same,"tumor specific accumulation of CD3+T, CD4+T and CD8+T cells",[24]; ID-8 model,increased
same,tumor burden,[24]; ID-8 ovarian syngeneic murine tumor model,significantly reduced
same,combination with PD-L1 treatment,[24]; ovarian cancer ID-8 syngeneic mice model,synergizes PD-L1 treatment
same,CYP inhibition,[25],2D6 inhibition
same,Plasma stability (% remaining at 60 min),Plasma stability [26],104.91%
same,expression of markers of activated stroma (western blot),[27],"reduced the expression of markers of activated stroma including alpha-SMA, and vimentin"
same,relative reduction in GFP fluorescence,[27]; as compared to control,46%
